Data taken from patent US20100093642A1, “NOVEL POLYPEPTIDES” (priority 2006, published 2010).
≈ marks a conversion by molar mass, not a printed value. Residues, ends and D or L forms follow the SMILES beside them. No end group written: not given here.

Tests used:
[1] = system: Enterococcus faecium (GREF), K9-28; type: cell-based; details: vancomycin-resistant clinical isolate; 37° C.; 3×10^6 cells per ml
Procedure: (§1) The antibacterial activities of the different peptides were determined by continuous monitoring of bacterial growth with a Bioscreen C microbiology reader (Labsystems Oy, Helsinki, Finland). The test was performed in 100-well flat-bottomed honeycomb plates, in which 50 μl of test fractions were incubated with 50 μl of a suspension of an actively growing culture of bacteria diluted in Mueller Hinton medium to a starting concentration of 3×10^4 cells per ml. The Gram-negative bacteria, Listonella (Vibrio) anguillarum, serotype O2 (FT 1801, a fish pathogenic strain), Pseudomonas aeruginosa and E. coli (ATCC 25922), and the Gram-positive bacteria, C. glutamicum (ATCC 13032) and S. aureus (ATCC 9144), were chosen as test bacteria. The growth chamber was maintained at either 20 or 37° C. during the incubation period. The absorbance was measured at 2 h intervals for 48 h by a turbidometric method with vertical light photometry and a wide band filter (420-580 nm), which is more insensitive to color change in the sample compared to single wavelength detection. Antibacterial activity was determined when the optical density (OD) of the growth control (bacteria plus water) reached an absorbance of 0.3-0.4. Fractions were regarded as active when the OD was less than 50% of the growth control. Polymyxin B (Sigma, St. Louis, Mo., USA), Lactoferricin B, Cecropin P1 and Hyalophora cecropia Cecropin B were used as reference.
(§2) The antimicrobial molecules were also tested against drug resistant clinical isolates, such as the commonly encountered multi-resistant human pathogen S. aureus (MRSA) K15-64 and the glycopeptide (vancomycin)-resistant Enterococccus faecium (GREF) K9-28. The non-clinical isolates Escherichia coli (ATCC 25922), Pseudomonas aeruginosa (ATCC 27853), Corynebacterium glutamicum (ATCC 13032), and Staphylococcus aureus (ATCC 9144) were also tested for comparison. Serial dilutions of synthetic peptides were made in double distilled water and tested according to the method described above. However, in these experiments the starting concentration of bacteria were 3×10^6 cells per ml and the temperature in the growth chamber was 37° C. Polymyxin B was used as positive control for the Gram-negative bacteria.

Salmonella K14-40 = type: cell-based; details: clinical isolate; 37° C.; 3×10^6 cells per ml
Procedure: as §1, §2

[2] = system: Staphylococcus aureus (MRSA), K15-64; type: cell-based; details: multi-resistant clinical isolate; 37° C.; 3×10^6 cells per ml
Procedure: as §1, §2

[3] = system: Citrobacter freundii, K15-75; type: cell-based; details: clinical isolate; 37° C.; 3×10^6 cells per ml
Procedure: as §1, §2

[4] = system: Staphylococcus aureus, ATCC 9144; type: cell-based; details: non-clinical isolate; 37° C.; 3×10^6 cells per ml
Procedure: as §1, §2

[5] = system: Corynebacterium glutamicum, ATCC 13032; type: cell-based; details: non-clinical isolate; 37° C.; 3×10^6 cells per ml
Procedure: as §1, §2

[6] = system: Acinetobacter baumannilii, K15-9; type: cell-based; details: clinical isolate; 37° C.; 3×10^6 cells per ml
Procedure: as §1, §2

Pseudomonas K15-60 = type: cell-based
Procedure: as §1, §2

Klebsiella K15-72 = type: cell-based; details: clinical isolate; 37° C.; 3×10^6 cells per ml
Procedure: as §1, §2

Bacillus spp K13-61 = type: cell-based; details: clinical isolate; 37° C.; 3×10^6 cells per ml
Procedure: as §1, §2

Escherichia coli, K15-58 = type: cell-based; details: clinical isolate; 37° C.; 3×10^6 cells per ml
Procedure: as §1, §2

TNF-α = experiment: Inhibition of LPS induced TNF-α response in THP-1 cells (ELISA); type: cell-based, human; details: Ratio TC50 (THP-1)/EC50 (anti-TNFα)
Procedure: FIG. 12. Antiinnflammatory response measured as inhibition of tumor necrosis factor alpha (TNF-α) response in THP-1 cells after stimulation with LPS. THP-1 cells (1×10^6 cells/ml) were treated with P17 derivates in different concentrations for 1 hour, and subsequently stimulated with 100 ng/ml LPS for 6 hours. LPS was used as control for induction of TNF-α. (set as 100% response), RPMI media was used as negative (non-stimulated) control, and cycloheximide (Chx, 10 μg/ml) was used as a an inhibitory control for LPS induced TNF-α. The data presented are the average of two parallells. (A) The effect of the peptides P17 HC and P17 HC (1-20). (B) The effect of the peptides P17 HC (11-20) and P17 HC-Br.
The THP-1 cells (ATCC, TIB-202) were maintained in suspension in RPMI-1640 medium with 25 mM HEPES and 2 mM Glutamax I supplemented with 10% FBS (growth medium) in a humidified atmosphere of 5% CO2 at 37° C. Cells to be used in the assay were grown to a density of 8×10^5-1×10^6 cells/ml. The cells were centrifuged for 7 min at 200 g and the cell pellet was resuspended to a concentration of 10^6 cells/ml in RPMI-1640 with 10% FBS.
To allow examination of antiinflammatory effects of the peptides on basal and stimulated cytokine production, peptide-treated macrophages were cultured in the presence of LPS and the levels of TNF-α were measured. The primary screening was based on a mammalian cell line; the human THP-1 line. This line is of monocyte/macrophage origin and responds to various stimuli by increased production of cytokines, like TNF-α and the IL-1β, (Wang et al. 2000). To induce monocyte-macrophage differentiation, THP-1 cells were cultured in 96-well culture plates (10^6 cells/well) in a volume of 100 μl RPMI 1640 medium, containing 50 ng/ml PMA (which is known to induce the maturation of monocytes) and incubated in a humidified atmosphere of 5% CO2, at 37° C. for 48 hours. The medium was then removed and the cells were washed with PBS, added 100 μl fresh medium (without PMA) and incubated for another 24 hours. Medium was removed and the adherent macrophages were treated with 100 μl of peptide solution (concentrations ranging from 0 to 400 μg/ml), diluted in RPMI-1640 medium with 25 mM HEPES and 2 mM Glutamax I, but without […] (assay medium). After incubation at 37° C. for 1 hour, the cells were added LPS (0.1 μg/ml) and further incubated for 6 hours. […] TNF-α concentrations were quantified by the Human TNF-α ELISA MAX kit (BioLegend), according to the manufacturer's instructions. Duplicate readings for each standard, control and sample were recorded. The average absorbance for each set of standards, controls, and samples was calculated using a standard curve. Concentrations were determined by extrapolation on the standard curve.

Molecule | Minimal inhibitory concentration, Enterococcus faecium (GREF), K9-28 [1] [µM] | Minimal inhibitory concentration, Salmonella K14-40 (Salmonella K14-40) [µM] | Minimal inhibitory concentration, Staphylococcus aureus (MRSA), K15-64 [2] [µM] | Minimal inhibitory concentration, Citrobacter freundii, K15-75 [3] [µM] | Minimal inhibitory concentration, Staphylococcus aureus, ATCC 9144 [4] [µM] | Minimal inhibitory concentration, Corynebacterium glutamicum, ATCC 13032 [5] [µM] | Minimal inhibitory concentration, Acinetobacter baumannilii, K15-9 [6] [µM] | Minimal inhibitory concentration, Pseudomonas K15-60 (Pseudomonas K15-60) [µM] | Minimal inhibitory concentration, Klebsiella K15-72 (Klebsiella K15-72) [µM] | Minimal inhibitory concentration, Bacillus spp K13-61 (Bacillus spp K13-61) [µM] | Minimal inhibitory concentration, Escherichia coli, K15-58 (Escherichia coli, K15-58) [µM] | Therapeutic index TC50/EC50 (TNF-α)
CC[C@H](C)[C@H](NC(=O)CNC(=O)[C@H](CO)NC(=O)[C@H](CCCCN)NC(=O)[C@@H](NC(=O)[C@H](C)NC(=O)[C@H](Cc1c[nH]cn1)NC(=O)[C@H](CO)NC(=O)[C@@H](NC(=O)[C@H](CCCCN)NC(=O)[C@H](Cc1c[nH]cn1)NC(=O)[C@H](Cc1ccccc1)NC(=O)[C@@H](NC(=O)[C@H](CCCCN)NC(=O)[C@H](CCCCN)NC(=O)[C@H](Cc1ccccc1)NC(=O)C(Cc1c[nH]c2ccc(Br)cc12)NC(=O)CN)[C@@H](C)O)C(C)C)C(C)C)C(=O)N[C@@H](Cc1c[nH]cn1)C(=O)N[C@@H](C)C(=O)NCC(=O)N[C@@H](CCC(N)=O)C(=O)N[C@@H](CCCNC(=N)N)C(=O)NCC(=O)N[C@@H](CS)C(=O)N[C@@H](CO)C(=O)N[C@@H](C)C(=O)N[C@@H](CC(C)C)C(=O)NCC(=O)N[C@@H](Cc1ccccc1)C(=O)O (stereo partly drawn) [P17 HC-Br] (HELM PEPTIDE1{G.[O=C(C(Cc1c[nH]c2ccc(Br)cc12)N[*:1])[*:2]].F.K.K.T.F.H.K.V.S.H.A.V.K.S.G.I.H.A.G.Q.R.G.C.S.A.L.G.F}$$$$V2.0) | 0.78 (≈ 2.59 µg/mL) | 6.25 (≈ 20.8 µg/mL) | 6.25 (≈ 20.8 µg/mL) | 1.56 (≈ 5.18 µg/mL) | 12.5 (≈ 41.5 µg/mL) | 0.78 (≈ 2.59 µg/mL) | 1.56 (≈ 5.18 µg/mL) | 3.12 (≈ 10.4 µg/mL) | 3.12 (≈ 10.4 µg/mL) | 6.25 (≈ 20.8 µg/mL) | 3.12 (≈ 10.4 µg/mL) | 46.5
GWFKKTFHKVSHAVKSGIHAGQRGCSALGF [P17 HC] | 0.39 | 6.25 | 6.25 | 0.78 | 12.5 | 0.78 | 3.12 | 3.12 | 3.12 | 6.25 | 1.56 | 13.6
GWFKKTFHKVSHAVKSGIHA [P17 HC (1-20)] | 6.25 | 50 | >50 | 12.5 | >50 | 3.12 | 6.25 | 12.5 | >50 | 50 | 6.25 | >17.4
